Test results published in patent publication US11414424B2, “Cardiac sarcomere inhibitors” (Cytokinetics, Inc., priority 2018, dated 2022).

test system: bovine cardiac myofibrils; test: Myofibril assay: PK/LDH-coupled steady-state ATPase activity of skinned bovine cardiac myofibrils; format: biochemical; details: Ca2+ activating to 75% of maximal rate
In short: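 Steady-state ATPase of detergent-skinned bovine left-ventricular myofibrils (1 mg/mL), PK/LDH-coupled NADH read at 340 nm, in PIPES/MgCl2 buffer pH 6.8 with 50 μM ATP, 0.6 mM EGTA and CaCl2 set for 50% or 75% activation. Inhibition of activity measured.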

CDMF75 IC15	Structure (SMILES)
2.9 µM	O=C1C(C2COC2)N(Cc2ccc(F)cc2)C(=O)CN1c1ncc(Br)cc1F (stereo not drawn) [Compound 707, 1-(5-bromo-3-fluoropyridin-2-yl)-4-(4-fluorobenzyl)-3-(oxetan-3-yl)piperazine-2,5-dione]
1.4 µM	O=C1C(C2COC2)N(Cc2ccc(Cl)cc2)C(=O)CN1c1ncc(Br)cc1F (stereo not drawn) [Compound 708, 1-(5-bromo-3-fluoropyridin-2-yl)-4-(4-chlorobenzyl)-3-(oxetan-3-yl)piperazine-2,5-dione]
12.4 µM	Cc1cc(Cl)cnc1N1CC(=O)N(Cc2ccc(F)cc2)C(C2COC2)C1=O (stereo not drawn) [Compound 714, 1-(5-chloro-3-methylpyridin-2-yl)-4-(4-fluorobenzyl)-3-(oxetan-3-yl)piperazine-2,5-dione]
2.3 µM	O=C1C(C2CC(O)C2)N(Cc2ccc(C(F)(F)F)cc2)C(=O)CN1c1ncc(Cl)cc1F (stereo not drawn) [Compound 740, 1-(5-chloro-3-fluoropyridin-2-yl)-3-(3-hydroxycyclobutyl)-4-(4-(trifluoromethyl)benzyl)piperazine-2,5-dione]
3.7 µM	O=C1C(C2COC2)N(Cc2ccc(C(F)(F)F)cc2)C(=O)CN1c1ccc(Cl)c(F)c1 (stereo not drawn) [Compound 747, 1-(4-chloro-3-fluorophenyl)-3-(oxetan-3-yl)-4-(4-(trifluoromethyl)benzyl)-piperazine-2,5-dione]
1.0 µM	O=C1[C@H](C2CC2)N(Cc2ccc(C(F)(F)F)cc2)C(=O)CN1c1ncc(Cl)cc1F [Compound 750, (S)-1-(5-chloro-3-fluoropyridin-2-yl)-3-cyclopropyl-4-(4-(trifluoromethyl)benzyl)piperazine-2,5-dione]
1.3 µM	O=C1[C@H](C2CC2)N(Cc2ccc(F)cc2)C(=O)CN1c1ncc(Cl)cc1F [Compound 751, (S)-1-(5-chloro-3-fluoro-pyridin-2-yl)-3-cyclo-propyl-4-(4-fluorobenzyl)-piperazine-2,5-dione]
7.2 µM	Cc1ccc(CN2C(=O)CN(c3ncc(Cl)cc3F)C(=O)C23COC3)cc1 [Compound 757, 8-(5-chloro-3-fluoropyrldin-2-yl)-5-(4-methylbenzyl)-2-oxa-5,8-diazaspiro[3.5]-nonane-6,9-dione]
1.6 µM	O=C1CN(c2ncc(Cl)cc2F)C(=O)C2(CC(O)C2)N1Cc1ccc(F)cc1 (stereo not drawn) [Compound 764, 8-(5-chloro-3-fluoropyridin-2-yl)-5-(4-fluorobenzyl)-2-hydroxy-5,8-diazaspiro-[3.5]nonane-6,9-dione]
4.3 µM	O=C1CN(c2ncc(Cl)cc2F)C(=O)C2(COC2)N1Cc1ccc(C(F)F)cc1 [Compound 768, 8-(5-chloro-3-fluoropyridin-2-yl)-5-(4-(difluoromethyl)-benzyl)-2-oxa-5,8-diazaspiro[3.5]nonane-6,9-dione]
7.9 µM	COc1cnc(N2CC(=O)N(Cc3ccc(Cl)cc3)C(C3COC3)C2=O)c(F)c1 (stereo not drawn) [Compound 769, 4-(4-chlorobenzyl)-1-(3-fluoro-5-methoxypyridin-2-yl)-3-(oxetan-3-yl)-piperazine-2,5-dione]
2.4 µM	COC(=O)C12CC(C3C(=O)N(c4ncc(Cl)cc4F)CC(=O)N3Cc3ccc(C(F)(F)F)cc3)(C1)C2 (stereo not drawn) [Compound 778, methyl 3-(4-(5-chloro-3-fluoropyridin-2-yl)-3,6-dioxo-1-(4-(trifluoro-methyl)benzyl)piperazin-2-yl)bicydo[1.1.1]pentane-1-carboxylate]
2.9 µM	COC(=O)C12CC(C3C(=O)N(c4ncc(Cl)cc4F)CC(=O)N3Cc3ccc(C(F)F)cc3)(C1)C2 (stereo not drawn) [Compound 779, methyl 3-(4-(5-chloro-3-fluoropyridin-2-yl)-1-(4-(difluoromethyl)benzyl)-3,6-dioxopiperazin-2-yl)bicyclo[1.1.1]pentane-1-carboxylate]
3.6 µM	COC(=O)C12CC(C3C(=O)N(c4ncc(Cl)cc4F)CC(=O)N3Cc3ccc(F)cc3)(C1)C2 (stereo not drawn) [Compound 780, methyl 3-(4-(5-chloro-3-fluoropyridin-2-yl)-1-(4-fluorobenzyl)-3,6-dioxopiperazin-2-yl)bicyclo[1.1.1]pentane-1-carboxylate]
4.0 µM	COC(=O)C12CC(C3C(=O)N(c4ncc(Cl)cc4F)CC(=O)N3Cc3ccc(C)cc3)(C1)C2 (stereo not drawn) [Compound 781, methyl 3-(4-(5-chloro-3-fluoropyridin-2-yl)-1-(4-methylbenzyl)-3,6-dioxopiperazin-2-yl)bicyclo[1.1.1]pentane-1-carboxylate]
3.6 µM	CCOC(=O)C12CC(C3C(=O)N(c4ncc(Cl)cc4F)CC(=O)N3Cc3ccc(C(F)(F)F)cc3)(C1)C2 (stereo not drawn) [Compound 782, ethyl 3-(4-(5-chloro-3-fluoropyridin-2-yl)-3,6-dioxo-1-(4-(trifluoro-methyl)benzyl)piperazin-2-yl)bicyclo[1.1.1]pentane-1-carboxylate]
3.08 µM	NC(=O)C12CC(C3C(=O)N(c4ncc(Cl)cc4F)CC(=O)N3Cc3ccc(C(F)(F)F)cc3)(C1)C2 (stereo not drawn) [Compound 783, 3-(4-(5-chloro-3-fluoro-pyridin-2-yl)-3,6-dioxo-1-(4-(trifluoromethyl)-benzyl)piperazin-2-yl)bicyclo[1.1.1]pentane-1-carboxamide]
6.8 µM	O=C1C(C23CC(CO)(C2)C3)N(Cc2ccc(C(F)(F)F)cc2)C(=O)CN1c1ncc(Cl)cc1F (stereo not drawn) [Compound 784, 1-(5-chloro-3-fluoropyridin-2-yl)-3-(3-(hydroxymethyl)bicyclo[1.1.1]pentan-1-yl)-4-(4-(trifluoromethyl)benzyl)piperazine-2,5-dione]
5.0 µM	CC(=O)N1CC2(C1)C(=O)N(c1ccc(Cl)cc1F)CC(=O)N2Cc1ccc(F)cc1 [Compound 785, 2-acetyl-8-(4-chloro-2-fluorophenyl)-5-(4-fluorobenzyl)-2,5,8-triazaspiro[3.5]nonane-6,9-dione]

Continued, compound first:

Structure (SMILES)	CDMF75 IC15
O=C1C(C2COC2)N(Cc2ccc(C(F)(F)F)cc2)C(=O)CN1c1ncc(OC(F)F)cc1F (stereo not drawn) [Compound 711, 1-(5-(difluoromethoxy)-3-fluoropyridin-2-yl)-3-(oxetan-3-yl)-4-(4-(trifluoromethyl)benzyl)-piperazine-2,5-dione]	24.6 µM
Cc1cc(Cl)cnc1N1CC(=O)N(Cc2ccc(F)c(Cl)c2)C(C2COC2)C1=O (stereo not drawn) [Compound 717, 1-(5-chloro-3-methyl-pyridin-2-yl)-4-(3-chloro-4-fluorobenzyl)-3-(oxetan-3-yl)piperazine-2,5-dione]	7.3 µM
Cc1cc(Cl)cnc1N1CC(=O)N(Cc2ccc(F)c(F)c2)C(C2COC2)C1=O (stereo not drawn) [Compound 720, 1-(5-chloro-3-methyl-pyridin-2-yl)-4-(3,4-difluorobenzyl)-3-(oxetan-3-yl)piperazine-2,5-dione]	9.2 µM
C=Cc1cnc(N2CC(=O)N(Cc3ccc(Cl)cc3)C(C3COC3)C2=O)c(F)c1 (stereo not drawn) [Compound 723, 4-(4-chlorobenzyl)-1-(3-fluoro-5-vinylpyridin-2-yl)-3-(oxetan-3-yl)piperazine-2,5-dione]	7.1 µM
Cc1ccc(CN2C(=O)CN(c3ncc(Cl)cc3C)C(=O)C2C2COC2)cc1F (stereo not drawn) [Compound 724, 1-(5-chloro-3-methyl-pyridin-2-yl)-4-(3-fluoro-4-methylbenzyl)-3-(oxetan-3-yl)piperazine-2,5-dione]	13.8 µM
Cc1cc(CN2C(=O)CN(c3ncc(Cl)cc3C)C(=O)C2C2COC2)ccc1F (stereo not drawn) [Compound 727, 1-(5-chloro-3-methyl-pyridin-2-yl)-4-(4-fluoro-3-methylbenzyl)-3-(oxetan-3-yl)piperazine-2,5-dione]	3.2 µM
Cc1cc(Cl)cnc1N1CC(=O)N(Cc2ccc(Cl)c(F)c2)C(C2COC2)C1=O (stereo not drawn) [Compound 730, 4-(4-chloro-3-fluoro-benzyl)-1-(5-chloro-3-methylpyridin-2-yl)-3-(oxetan-3-yl)-piperazine-2,5-dione]	3.4 µM
Cc1ccc(CN2C(=O)CN(c3ncc(Cl)cc3C)C(=O)C2C2COC2)cc1 (stereo not drawn) [Compound 733, 1-(5-chloro-3-methyl-pyridin-2-yl)-4-(4-methyl-benzyl)-3-(oxetan-3-yl)-piperazine-2,5-dione]	11.8 µM
N#Cc1cnc(N2CC(=O)N(Cc3ccc(C(F)(F)F)cc3)C(C3COC3)C2=O)c(F)c1 (stereo not drawn) [Compound 736, 5-fluoro-6-(3-(oxetan-3-yl)-2,5-dioxo-4-(4-(trifluoromethyl)benzyl)-piperazin-1-yl)nicotinonitrile]	2.0 µM
O=C1C([C@H]2C[C@@H](O)C2)N(Cc2ccc(C(F)(F)F)cc2)C(=O)CN1c1ncc(Cl)cc1F (stereo partly drawn) [Compound 739, 1-(5-chloro-3-fluoropyridin-2-yl)-3-((1 s,3s)-3-hydroxycyclobutyl)-4-(4-(trifluoromethyl)benzyl)piperazine-2,5-dione]	2.2 µM
COc1cnc(N2CC(=O)N(Cc3ccc(C)cc3)C(C3COC3)C2=O)c(F)c1 (stereo not drawn) [Compound 758, 1-(3-fluoro-5-methoxy-pyridin-2-yl)-4-(4-methyl-benzyl)-3-(oxetan-3-yl)-piperazine-2,5-dione]	19.4 µM
COc1cnc(N2CC(=O)N(Cc3ccc(C)c(F)c3)C(C3COC3)C2=O)c(F)c1 (stereo not drawn) [Compound 761, 4-(3-fluoro-4-methyl-benzyl)-1-(3-fluoro-5-methoxypyridin-2-yl)-3-(oxetan-3-yl)piperazine-2,5-dione]	16.3 µM
COc1cnc(N2CC(=O)N(Cc3ccc(Cl)c(F)c3)C(C3COC3)C2=O)c(F)c1 (stereo not drawn) [Compound 772, 4-(4-chloro-3-fluoro-benzyl)-1-(3-fluoro-5-methoxypyridin-2-yl)-3-(oxetan-3-yl)piperazine-2,5-dione]	7.7 µM
COc1cnc(N2CC(=O)N(Cc3ccc(F)c(Cl)c3)C(C3COC3)C2=O)c(F)c1 (stereo not drawn) [Compound 775, 4-(3-chloro-4-fluoro-benzyl)-1-(3-fluoro-5-methoxypyridin-2-yl)-3-(oxetan-3-yl)piperazine-2,5-dione]	8.0 µM
